Our source for the IC50 and Activity values is ChEMBL document CHEMBL5550160, “Leveraging a rationally designed veliparib-based anilide eliciting anti-leukemic effects for the design of pH-responsive polymer nanoformulation” (Eur J Med Chem, 2024).

Calls of active or inactive are those of the source. The calls are words filed in the database; no cut-off is given here. Where only a bound is given, the exact number is not on record here.

The subject of assay [1] is SiHa. Description: cells. The format is functional, cell-based. Particulars: Homo sapiens.
Description: Antiproliferative activity against human SiHa cells assessed as inhibition of cell growth by MTT assay
The target in assay [2] is Histone deacetylase 4 (Homo sapiens) (UniProt P56524). Description: Inhibition of HDAC4 (unknown origin) assessed as residual activity at 1 x 10^-5M (reference value: 98.90%). The conditions noted are these: dose 1.0 10^-5M.
The target in assay [3] is T1, Histone deacetylase 2 (Homo sapiens, UniProt Q92769). The assay is described as follows: Inhibition of HDAC2 (unknown origin) assessed as residual activity at 3.33 x 10^-6M (reference value: 99.81%). The conditions noted are these: dose 3.33 10^-6M.
Assay [4] addresses T2, Histone deacetylase 3 (Homo sapiens, UniProt O15379). Description: Inhibition of HDAC3 (unknown origin) using p53 residues 379 to 382 [RHKK(Ac)] as fluorogenic substrate assessed as residual activity at 3.33 x 10^-6M (reference value: 103.08%). Particulars: dose 3.33 10^-6M.
Assay [5] addresses T2, Histone deacetylase 3. The assay is described as follows: Inhibition of HDAC3 (unknown origin) using p53 residues 379 to 382 [RHKK(Ac)] as fluorogenic substrate assessed as residual activity at 1.52 x 10^-9M (reference value: 103.08%). The conditions noted are these: dose 1.52 10^-9M.
Assay [6] addresses Histone deacetylase 4 (Homo sapiens) (UniProt P56524). Description: Inhibition of HDAC4 (unknown origin) assessed as residual activity at 1.23 x 10^-7M (reference value: 98.90%). The conditions noted are these: dose 1.23 10^-7M.
Assay [7] shares this target. The assay is described as follows: Inhibition of HDAC4 (unknown origin) assessed as residual activity at 4.12 x 10^-8M (reference value: 98.90%). The conditions noted are these: dose 4.12 10^-8M.
The target in assay [8] is T3, Histone deacetylase 7 (Homo sapiens) (UniProt Q8WUI4).
T3 sequence (whole entry): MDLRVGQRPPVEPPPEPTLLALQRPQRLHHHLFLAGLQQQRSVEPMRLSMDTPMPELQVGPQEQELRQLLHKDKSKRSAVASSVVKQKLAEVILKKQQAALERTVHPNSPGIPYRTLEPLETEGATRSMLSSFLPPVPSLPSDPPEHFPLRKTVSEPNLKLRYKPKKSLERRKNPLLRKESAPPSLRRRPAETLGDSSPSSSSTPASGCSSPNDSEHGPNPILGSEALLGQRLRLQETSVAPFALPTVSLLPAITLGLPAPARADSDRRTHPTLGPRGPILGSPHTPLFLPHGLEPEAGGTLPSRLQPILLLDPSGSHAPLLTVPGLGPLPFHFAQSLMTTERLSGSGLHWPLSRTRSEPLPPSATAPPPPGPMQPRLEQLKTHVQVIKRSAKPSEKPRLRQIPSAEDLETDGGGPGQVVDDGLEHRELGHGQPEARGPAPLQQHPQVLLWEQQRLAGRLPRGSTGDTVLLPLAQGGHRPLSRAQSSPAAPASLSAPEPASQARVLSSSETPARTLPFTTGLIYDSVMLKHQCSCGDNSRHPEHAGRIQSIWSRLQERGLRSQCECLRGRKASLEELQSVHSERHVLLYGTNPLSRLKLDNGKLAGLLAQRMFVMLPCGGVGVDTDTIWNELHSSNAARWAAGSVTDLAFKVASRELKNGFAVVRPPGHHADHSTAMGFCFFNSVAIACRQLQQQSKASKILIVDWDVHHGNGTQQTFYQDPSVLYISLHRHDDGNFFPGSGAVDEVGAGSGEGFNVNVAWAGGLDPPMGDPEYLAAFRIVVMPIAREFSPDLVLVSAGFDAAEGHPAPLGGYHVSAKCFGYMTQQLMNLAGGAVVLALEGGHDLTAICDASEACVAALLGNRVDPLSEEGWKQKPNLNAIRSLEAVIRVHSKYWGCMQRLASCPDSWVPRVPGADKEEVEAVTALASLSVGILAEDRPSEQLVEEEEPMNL
The assay is described as follows: Inhibition of HDAC7 (unknown origin) assessed as residual activity at 1.1 x 10^-6M (reference value: 102.66%). The conditions noted are these: dose 1.1 10^-6M.

Assay [9] has as its target T3, Histone deacetylase 7 (Homo sapiens). Description: Inhibition of HDAC7 (unknown origin) assessed as residual activity at 3.70 x 10^-7M (reference value: 102.66%). The conditions noted are these: dose 3.7 10^-7M.
Assay [10] has the same target. The assay is described as follows: Inhibition of HDAC7 (unknown origin) assessed as residual activity at 4.57 x 10^-9M (reference value: 102.66%). The conditions noted are these: dose 4.57 10^-9M.
For assay [11], the target named is T4, Histone deacetylase 8 (Homo sapiens) (UniProt Q9BY41).
T4 sequence (whole entry): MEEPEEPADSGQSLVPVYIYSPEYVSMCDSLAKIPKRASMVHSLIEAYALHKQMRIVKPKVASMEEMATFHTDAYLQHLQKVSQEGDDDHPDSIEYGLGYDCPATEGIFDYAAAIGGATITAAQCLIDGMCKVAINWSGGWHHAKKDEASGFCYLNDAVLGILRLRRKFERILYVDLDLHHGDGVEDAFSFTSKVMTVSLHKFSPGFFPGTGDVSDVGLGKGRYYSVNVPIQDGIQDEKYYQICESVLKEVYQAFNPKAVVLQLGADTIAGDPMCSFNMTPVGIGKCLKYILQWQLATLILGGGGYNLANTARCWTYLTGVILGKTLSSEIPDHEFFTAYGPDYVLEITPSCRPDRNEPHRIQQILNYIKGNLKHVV
Description: Inhibition of HDAC8 (unknown origin) assessed as residual activity at 1.1 x 10^-6M (reference value: 100%). The conditions noted are these: dose 1.1 10^-6M.

The target of assay [12] is T4, Histone deacetylase 8 (Homo sapiens). Description: Inhibition of HDAC8 (unknown origin) assessed as residual activity at 4.12 x 10^-8M (reference value: 100%). Particulars: dose 4.12 10^-8M.
For assay [13], the target named is T1, Histone deacetylase 2. Description: Inhibition of HDAC2 (unknown origin).
The target in assay [14] is T2, Histone deacetylase 3. Description: Inhibition of HDAC3 (unknown origin) using p53 residues 379 to 382 [RHKK(Ac)] as fluorogenic substrate.
Assay [15] deals with HL-60. Description: Downregulation of HDAC1 protein expression in human HL-60 cells at 0.5 to 1 times IC50 by Western blot analysis. The format is functional, cell-based. On the technique in general: Immunoblotting shows a protein as a band on a membrane.

Sequence of Histone deacetylase 4 (Homo sapiens) (P56524 whole entry): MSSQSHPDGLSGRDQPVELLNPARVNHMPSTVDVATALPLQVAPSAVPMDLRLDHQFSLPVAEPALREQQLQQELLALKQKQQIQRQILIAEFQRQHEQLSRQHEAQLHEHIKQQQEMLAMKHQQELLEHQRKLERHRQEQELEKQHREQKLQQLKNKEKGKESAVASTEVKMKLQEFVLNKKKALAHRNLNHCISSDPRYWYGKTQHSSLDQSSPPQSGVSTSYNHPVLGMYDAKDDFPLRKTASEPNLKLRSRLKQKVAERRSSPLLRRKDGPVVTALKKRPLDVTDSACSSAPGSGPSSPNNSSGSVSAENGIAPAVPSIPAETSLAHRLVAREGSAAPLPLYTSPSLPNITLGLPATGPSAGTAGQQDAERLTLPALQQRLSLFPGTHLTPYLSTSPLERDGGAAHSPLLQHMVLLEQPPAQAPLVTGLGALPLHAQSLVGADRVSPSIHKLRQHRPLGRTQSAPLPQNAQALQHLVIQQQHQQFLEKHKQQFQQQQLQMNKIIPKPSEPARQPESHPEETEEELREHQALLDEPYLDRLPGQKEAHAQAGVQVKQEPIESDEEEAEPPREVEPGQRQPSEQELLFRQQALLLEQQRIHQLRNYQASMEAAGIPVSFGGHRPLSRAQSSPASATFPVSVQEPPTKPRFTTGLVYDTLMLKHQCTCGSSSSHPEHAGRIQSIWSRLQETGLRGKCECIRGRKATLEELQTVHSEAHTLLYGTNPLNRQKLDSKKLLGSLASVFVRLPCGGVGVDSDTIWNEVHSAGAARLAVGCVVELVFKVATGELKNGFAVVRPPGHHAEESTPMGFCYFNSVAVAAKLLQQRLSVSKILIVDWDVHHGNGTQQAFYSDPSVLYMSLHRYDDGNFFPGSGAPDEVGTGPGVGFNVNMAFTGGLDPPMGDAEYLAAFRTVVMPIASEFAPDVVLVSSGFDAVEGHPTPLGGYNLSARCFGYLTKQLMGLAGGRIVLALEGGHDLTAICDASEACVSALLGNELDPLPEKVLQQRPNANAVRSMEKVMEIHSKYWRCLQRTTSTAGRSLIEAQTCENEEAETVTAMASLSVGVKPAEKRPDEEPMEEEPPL
T2 sequence (O15379 whole entry, the tested form may be a part): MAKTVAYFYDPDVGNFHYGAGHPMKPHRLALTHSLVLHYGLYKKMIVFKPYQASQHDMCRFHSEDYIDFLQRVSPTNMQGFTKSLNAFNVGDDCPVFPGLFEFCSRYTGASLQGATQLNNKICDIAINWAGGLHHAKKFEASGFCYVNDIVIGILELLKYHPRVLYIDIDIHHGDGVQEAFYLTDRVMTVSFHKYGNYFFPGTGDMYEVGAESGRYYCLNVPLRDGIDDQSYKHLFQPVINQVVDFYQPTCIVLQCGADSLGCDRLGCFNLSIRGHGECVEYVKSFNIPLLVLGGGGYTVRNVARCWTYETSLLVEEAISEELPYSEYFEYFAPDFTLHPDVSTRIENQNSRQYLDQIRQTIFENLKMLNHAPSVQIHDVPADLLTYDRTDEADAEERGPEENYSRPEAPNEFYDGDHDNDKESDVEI
T1 sequence (Q92769 whole entry, the tested form may be a part): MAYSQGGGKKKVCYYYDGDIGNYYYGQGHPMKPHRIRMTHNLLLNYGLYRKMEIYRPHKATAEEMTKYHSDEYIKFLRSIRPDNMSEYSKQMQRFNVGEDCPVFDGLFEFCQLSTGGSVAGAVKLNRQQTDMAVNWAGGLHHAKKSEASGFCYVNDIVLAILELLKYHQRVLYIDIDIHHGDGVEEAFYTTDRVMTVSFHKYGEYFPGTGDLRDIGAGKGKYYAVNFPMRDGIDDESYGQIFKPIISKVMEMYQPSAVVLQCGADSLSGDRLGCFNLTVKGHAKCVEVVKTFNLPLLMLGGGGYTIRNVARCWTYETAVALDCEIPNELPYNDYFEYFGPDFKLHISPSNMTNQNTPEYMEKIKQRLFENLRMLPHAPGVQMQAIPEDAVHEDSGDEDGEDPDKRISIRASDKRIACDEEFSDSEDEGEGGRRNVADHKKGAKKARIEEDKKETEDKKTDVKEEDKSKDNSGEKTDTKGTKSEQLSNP

In general, IC50 refers to the concentration at which inhibition is half-maximal. Turning to `NC(=O)c1cccc2[nH]c(-c3ccc(NCc4ccc(C(=O)Nc5ccccc5N)cc4)cc3)nc12`, the IC50 in assay [1] was greater than 10000 nM; in assay [13], 147 nM; in assay [14] it was 393 nM. Further, the Activity in assay [2] came to 127%; in [3], 5.75%; in assay [4], 12.8%; in assay [5], 97.7%; in assay [6], 85%; in [7], 96%. Further, the Activity in assay [8] was found to be 78.2%; in assay [9], 91.9%; in assay [10], 111%; in assay [11] it was 104%; in assay [12] it was 107%. For the same molecule, the result in assay [15] was Active.
